Test results as given in the supplement of paper PMC10307832.

Columns and labels:
Assay in all cases: relative viability (nuclei count vs DMSO), 5 days (fraction); higher = more cells survive
[1] = compound: Cc1ccc(NC(=O)c2ccc(CN3CCN(C)CC3)cc2)cc1Nc1nc(-c2cccnc2)cs1 [Masitinib] + Nc1nc2[nH]cc(CCc3ccc(C(=O)N[C@@H](CCC(=O)O)C(=O)O)cc3)c2c(=O)[nH]1 [Pemetrexed] (partner 0.2 µM)
How it was run: (§1)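 A single step with final 0.05% Triton X-100, 1% formaldehyde and 1 ug/ml Hoechst fixed the cells and stained nuclei 5 days after treatment. Lung cancer cell lines in 1536-well plates had been treated by pin tool the day after seeding with one drug alone or a fixed anchor-drug dose plus five library-drug doses (not always all listed) in √10 steps, and nuclei were counted on 4× images. Relative viability is the ratio of nuclei in treated wells to nuclei in vehicle wells, taken as the median of duplicate plates.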

[2] = compound: Cc1ccc(NC(=O)c2ccc(CN3CCN(C)CC3)cc2)cc1Nc1nc(-c2cccnc2)cs1 [Masitinib] + CC1(C)CCC(c2ccc(Cl)cc2)=C(CN2CCN(c3ccc(C(=O)NS(=O)(=O)c4ccc(N[C@H](CCN5CCOCC5)CSc5ccccc5)c(S(=O)(=O)C(F)(F)F)c4)cc3)CC2)C1 [Navitoclax] (partner 0.5 µM)
How it was run: as §1

[3] = compound: CC1=CC(=CC=C1)NC2=NC(=CS2)C3=CC=NC=C3 + Cc1cc(Nc2cc(N3CCN(C)CC3)nc(Sc3ccc(NC(=O)C4CC4)cc3)n2)n[nH]1 [Tozasertib] (partner 0.1 µM)
How it was run: as §1

[4] = compound: Cc1ccc(NC(=O)c2ccc(CN3CCN(C)CC3)cc2)cc1Nc1nc(-c2cccnc2)cs1 [Masitinib] + C[C@@H](Oc1cc(-c2cnn(C3CCNCC3)c2)cnc1N)c1c(Cl)ccc(F)c1Cl [Crizotinib] (partner 1 µM)
How it was run: as §1

Cell Line	relative viability ([1]; first compound 0.01 µM)	relative viability ([1]; first compound 0.03162 µM)	relative viability ([1]; first compound 0.1 µM)	relative viability ([1]; first compound 0.3162 µM)	relative viability ([1]; first compound 1 µM)	relative viability ([2]; first compound 0.01 µM)	relative viability ([2]; first compound 0.03162 µM)	relative viability ([2]; first compound 0.1 µM)	relative viability ([2]; first compound 0.3162 µM)	relative viability ([2]; first compound 1 µM)	relative viability ([3]; first compound 0.08 µM)	relative viability ([3]; first compound 0.253 µM)	relative viability ([3]; first compound 0.8 µM)	relative viability ([3]; first compound 2.53 µM)	relative viability ([3]; first compound 8 µM)	relative viability ([4]; first compound 0.01 µM)	relative viability ([4]; first compound 0.03162 µM)	relative viability ([4]; first compound 0.1 µM)	relative viability ([4]; first compound 0.3162 µM)	relative viability ([4]; first compound 1 µM)
NCI-H2126	0.633	0.713	0.672	0.665	0.738	0.761	0.807	0.842	0.823	0.798	0.77	0.756	0.798	0.686	0.737	1.02	1.09	1.05	1.07	0.993
LK-2	0.291	0.34	0.31	0.281	0.217	1.01	0.855	1.06	1.21	0.885		0.175	0.173		0.184	0.248	0.246	0.21	0.217	0.188
COR-L23	0.214	0.227	0.194	0.205	0.196	1.13	0.892	1.19	1.29	1.14	0.186	0.189	0.155	0.172	0.099	0.645	0.607	0.768	0.59	0.629
PC-14	0.137	0.144	0.13	0.12	0.141	1.05	0.89	0.991	1.04	0.937	0.527	0.58	0.497	0.526	0.555	0.787	0.817	0.901	0.723	0.829
A-427	0.758	0.986	0.857	1.03	0.771		0.99		0.927	0.933	0.245	0.185	0.216	0.213	0.192		0.889		0.845	0.783
NCI-H1915		0.507		0.467	0.496		0.755	0.717	0.737	0.777	0.455	0.442	0.411	0.367	0.404		0.995	1.01	1.03	1.08
LCLC-97TM1	0.168	0.154	0.169	0.173	0.168	0.35	0.42	0.0511	0.639	0.355	0.2	0.236	0.246	0.177	0.325	0.27	0.31	0.394	0.288	0.238
NCI-H1734	0.408	0.465	0.396	0.376	0.404	0.861	0.779	1	0.933	0.842	0.25	0.285	0.22	0.246	0.23	0.668	0.777	0.862	0.503	0.615
